Source: publication PMC8445441, “Elucidating the mechanism by which synthetic helper peptides sensitize Pseudomonas aeruginosa to multiple antibiotics” (PLoS Pathogens, 2021)
Where two headings read alike, the source gives them in different places.

Key:
[1] = system: P. aeruginosa ATCC27853; experiment: microbe, parasite or virus in culture; set-up: MICa: MIC of the antibiotic / MICac: MIC of the antibiotic in the combination: unit not given beside the values; conditions: strain ATCC27853; for FICI: antibiotic + D-11 (MICb/MICbc 32/4); for MICac: MIC of the antibiotic in the combination: with D-11 at MICbc 4
Experimental: (§1) The MIC tests were performed in triplicate using broth microdilution in accordance with Clinical and Laboratory Standards Institute (CLSI) recommendations (http://iacld.ir/DL/public/CLSI-2018-M100-S28.pdf). Briefly, drugs were two-fold diluted in MHB and mixed with an equal volume of bacterial suspensions containing approximately 1 × 10^6 CFU/mL in 96-well microliter plate. After 18 h incubation at 37 °C, the MIC values were defined as the lowest concentrations of antibiotics with no visible growth of bacteria. […] Otherwise, 1/4 MIC of the peptide was used in the combination. […] If needed, membrane compounds PG, PE, PC, CL or LPS, or membrane stabilizers MgCl2 or CaCl2, or efflux pumps inhibitor PAβN were added to the broth medium to clarify the effect of other substances on the synergy between peptide and antibiotics. All the tests were performed in triplicate.
(§2) The fractional inhibitory concentration (FIC) indices were calculated using the previously described formula FICI = FICa + FICb = MICac/MICa + MICbc/MICb. The FICI was interpreted according to EUCAST [65] as follows: synergistic, FICI≤0.5; additive, 0.5<FICI≤1; indifferent, 1<FICI<2; antagonistic, FICI ≥2. For the FICI calculations, twice the highest concentration tested was used in the cases where the MIC was not reached.

[2] = system: P. aeruginosa PAK; experiment: microbe, parasite or virus in culture; set-up: MICa: MIC of the antibiotic / MICac: MIC of the antibiotic in the combination: unit not given beside the values; conditions: strain PAK; for FICI: antibiotic + D-11 (MICb/MICbc 64/4); for MICac: MIC of the antibiotic in the combination: with D-11 at MICbc 4
Experimental: as §1, §2

[3] = system: P. aeruginosa NR-31040; experiment: microbe, parasite or virus in culture; set-up: MICa: MIC of the antibiotic / MICac: MIC of the antibiotic in the combination: unit not given beside the values; conditions: strain NR-31040; for MICac: MIC of the antibiotic in the combination: with D-11 at MICbc 4
Experimental: as §1, §2

[4] = system: P. aeruginosa PA14; experiment: microbe, parasite or virus in culture; set-up: MICa: MIC of the antibiotic / MICac: MIC of the antibiotic in the combination: unit not given beside the values; conditions: strain PA14; for MICac: MIC of the antibiotic in the combination: with D-11 at MICbc 4
Experimental: as §1, §2

[5] = system: P. aeruginosa NR-31041; experiment: microbe, parasite or virus in culture; set-up: MICa: MIC of the antibiotic / MICac: MIC of the antibiotic in the combination: unit not given beside the values; conditions: strain NR-31041; for FICI: antibiotic + D-11 (MICb/MICbc 64/4); for MICac: MIC of the antibiotic in the combination: with D-11 at MICbc 4
Experimental: as §1, §2

[6] = system: clinical P. aeruginosa isolates; experiment: microbe, parasite or virus in culture; conditions: Pseudomonas aeruginosa, 18 h, antibiotic alone
Experimental: The bacterial strains, primers and plasmids used in this study are listed in S5 Table. […] Bacteria were cultured in LB medium or cation-adjusted Muller-Hinton broth (CA-MHB) at 37 °C with agitation at 220 rpm. All the antibiotics and chemical compounds used in this study were purchased from Sigma-Aldrich.
as §1

[7] = system: P. aeruginosa AUMC-Pa-5; experiment: microbe, parasite or virus in culture; conditions: strain AUMC-Pa-5; for FICI: antibiotic + D-11 (MICb/MICbc 64/4); for MICac: MIC of the antibiotic in the combination: with D-11 at MICbc 4
Experimental: as §1, §2

[8] = system: P. aeruginosa PAO1; experiment: microbe, parasite or virus in culture; conditions: PAO1; for FICI / MICac: the MIC for the antibiotic in the combination: S3 Table
Experimental: as §1, §2

[9] = system: P. aeruginosa AUMC-Pa-4; experiment: microbe, parasite or virus in culture; conditions: strain AUMC-Pa-4; for MICac: MIC of the antibiotic in the combination: with D-11 at MICbc 4
Experimental: as §1, §2

[10] = system: P. aeruginosa AUMC-Pa-3; experiment: microbe, parasite or virus in culture; conditions: strain AUMC-Pa-3; for MICac: MIC of the antibiotic in the combination: with D-11 at MICbc 4
Experimental: as §1, §2

[11] = system: P. aeruginosa AUMC-Pa-6; experiment: microbe, parasite or virus in culture; conditions: strain AUMC-Pa-6; for FICI: antibiotic + D-11 (MICb/MICbc 64/4); for MICac: MIC of the antibiotic in the combination: with D-11 at MICbc 4
Experimental: as §1, §2

[12] = system: P. aeruginosa HM-214; conditions: strain HM-214; antibiotic + D-11 (MICb/MICbc 128/4)
Experimental: as §1, §2

[13] = system: P. aeruginosa AUMC-Pa-1; conditions: strain AUMC-Pa-1; antibiotic + D-11 (MICb/MICbc 128/4)
Experimental: as §1, §2

[14] = system: P. aeruginosa AUMC-Pa-2; conditions: strain AUMC-Pa-2; antibiotic + D-11 (MICb/MICbc 64/4)
Experimental: as §1, §2

[15] = antibiotic alone, unit not given
[16] = antibiotic + D-11 (MICb/MICbc 128/4)

For `C[C@H]1[C@H](NC(=O)/C(=N\OC(C)(C)C(=O)O)c2csc(N)n2)C(=O)N1S(=O)(=O)O` [Aztreonam], which FICI [1] is on record?
The FICI was 0.625.

And the “MICa: MIC of the antibiotic” value [1, 15]?
Its value is 8.

And the “MICac: MIC of the antibiotic in the combination” value (shortened to “MICac: MIC of the antibiotic”) ([1]; unit not given)?
The value was 4.

And the FICI [2]?
Its FICI is 0.563.

And the “MICa: MIC of the antibiotic” value [2, 15]?
The value was 8.

And the “MICac: MIC of the antibiotic” value ([2]; unit not given)?
Its value is 4.

What about the FICI [3, 16] of the same molecule?
Its FICI is 0.281.

And the “MICa: MIC of the antibiotic” value [3, 15]?
The value was 4.

And the “MICac: MIC of the antibiotic” value ([3]; unit not given)?
The value was 1.

What about the FICI [4, 16] of the same molecule?
Its FICI is 0.531.

What about the “MICa: MIC of the antibiotic” value [4, 15] of the same molecule?
Its value is 16.

What about the “MICac: MIC of the antibiotic” value ([4]; unit not given) of the same molecule?
The value was 8.

What about the FICI [5] of the same molecule?
The FICI was 0.188.

What about the “MICa: MIC of the antibiotic” value [5, 15] of the same molecule?
The value was 64.

What about the “MICac: MIC of the antibiotic” value ([5]; unit not given) of the same molecule?
The value was 8.

And the MIC ([6]; read-out: Antibiotic sensibility (MIC) of clinical P. aeruginosa isolate AUMC-Pa-1, strain AUMC-Pa-1)?
Its MIC is 32 µM.

What about the MIC ([6]; read-out: Antibiotic sensibility (MIC) of clinical P. aeruginosa isolate AUMC-Pa-2, strain AUMC-Pa-2) of the same molecule?
The MIC was 4 µM.

What about the MIC ([6]; read-out: Antibiotic sensibility (MIC) of clinical P. aeruginosa isolate AUMC-Pa-3, strain AUMC-Pa-3) of the same molecule?
Its MIC is 16 µM.

And the MIC ([6]; read-out: Antibiotic sensibility (MIC) of clinical P. aeruginosa isolate AUMC-Pa-4, strain AUMC-Pa-4)?
The MIC was 32 µM.

And the MIC ([6]; read-out: Antibiotic sensibility (MIC) of clinical P. aeruginosa isolate AUMC-Pa-5, strain AUMC-Pa-5)?
The MIC was 16 µM.

And the MIC ([6]; read-out: Antibiotic sensibility (MIC) of clinical P. aeruginosa isolate AUMC-Pa-6, strain AUMC-Pa-6)?
The MIC was 16 µM.

What about the MIC ([6]; read-out: Antibiotic sensibility (MIC) of clinical P. aeruginosa isolate HM-214, strain HM-214) of the same molecule?
Its MIC is 16 µM.

What about the MIC ([6]; read-out: Antibiotic sensibility (MIC) of clinical P. aeruginosa isolate NR-31040, strain NR-31040) of the same molecule?
The MIC was 4 µM.

What about the MIC ([6]; read-out: Antibiotic sensibility (MIC) of clinical P. aeruginosa isolate NR-31041, strain NR-31041) of the same molecule?
Its MIC is 64 µM.

What about the FICI [7] of the same molecule?
The FICI was 0.563.

What about the “MICa: MIC of the antibiotic” value [7, 15] of the same molecule?
Its value is 16.

What about the “MICac: MIC of the antibiotic” value ([7]; unit not given) of the same molecule?
The value was 8.

And the MIC ([8]; Pseudomonas aeruginosa, PAO1, 18 h, read-out: MICa: the MIC of antibiotics, S3 Table, antibiotic alone)?
The MIC was 8 µM.

What about the FICI ([8]; antibiotic + 2 μM D-11) of the same molecule?
Its FICI is 0.188.

What about the FICI ([8]; antibiotic + 4 μM D-11) of the same molecule?
The FICI was 0.156.

What about the “MICac: the MIC for the antibiotic in the combination” value ([8]; with 2 μM D-11) of the same molecule?
The value was 1 µM.

What about the “MICac: the MIC for the antibiotic in the combination” value ([8]; with 4 μM D-11) of the same molecule?
Its value is 0.25 µM.

What about the FICI [9, 16] of the same molecule?
Its FICI is 0.156.

And the “MICa: MIC of the antibiotic” value [9, 15]?
Its value is 32.

And the “MICac: MIC of the antibiotic” value ([9]; unit not given)?
The value was 4.

And the FICI [10, 16]?
Its FICI is 0.094.

What about the “MICa: MIC of the antibiotic” value [10, 15] of the same molecule?
The value was 16.

And the “MICac: MIC of the antibiotic” value ([10]; unit not given)?
The value was 1.

What about the FICI [11] of the same molecule?
Its FICI is 0.563.

What about the “MICa: MIC of the antibiotic” value [11, 15] of the same molecule?
The value was 16.

And the “MICac: MIC of the antibiotic” value ([11]; unit not given)?
The value was 8.

And the FICI [12]?
The FICI was 0.531.

What about the FICI [13] of the same molecule?
The FICI was 0.094.

What about the FICI [14] of the same molecule?
Its FICI is 1.063.

For `CC[C@H]1OC(=O)[C@H](C)[C@@H](O[C@H]2C[C@@](C)(OC)[C@@H](O)[C@H](C)O2)[C@H](C)[C@@H](O[C@@H]2O[C@H](C)C[C@H](N(C)C)[C@H]2O)[C@](C)(O)C[C@@H](C)C(=O)[C@H](C)[C@@H](O)[C@]1(C)O` [Erythromycin], which FICI [1] is on record?
The FICI was 0.188.

What about the “MICac: MIC of the antibiotic” value ([1]; unit not given) of the same molecule?
The value was 8.

What about the FICI [2] of the same molecule?
Its FICI is 0.188.

And the “MICac: MIC of the antibiotic” value ([2]; unit not given)?
The value was 16.

And the “MICac: MIC of the antibiotic” value ([3]; unit not given)?
The value was 32.

And the “MICac: MIC of the antibiotic” value ([4]; unit not given)?
The value was 32.

And the FICI [5]?
The FICI was 0.188.

What about the “MICac: MIC of the antibiotic” value ([5]; unit not given) of the same molecule?
The value was 16.

And the FICI [7]?
The FICI was 0.313.

What about the “MICac: MIC of the antibiotic” value ([7]; unit not given) of the same molecule?
The value was 32.

What about the “MICac: MIC of the antibiotic” value ([9]; unit not given) of the same molecule?
The value was 32.

What about the “MICac: MIC of the antibiotic” value ([10]; unit not given) of the same molecule?
Its value is 8.

What about the FICI [11] of the same molecule?
The FICI was 0.313.

And the “MICac: MIC of the antibiotic” value ([11]; unit not given)?
The value was 32.

And the FICI [14]?
Its FICI is 0.313.
